# From PubChem BioAssay (NCI)
#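 Five concentrations, 48 hours, 96-well plates. TGI is the concentration that stops growth completely.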
# Assays:
# Test in all cases: growth of human tumour cells (NCI), 48 h
# OVCAR-4 ovarian = tested on: OVCAR-4 ovarian
# HOP-62 NSCLC = tested on: HOP-62 NSCLC
# SK-MEL-28 melanoma = tested on: SK-MEL-28 melanoma
# UACC-62 melanoma = tested on: UACC-62 melanoma
# NCI-H23 lung = tested on: NCI-H23 lung
# SK-OV-3 ovarian = tested on: SK-OV-3 ovarian
# MOLT-4 leukemia = tested on: MOLT-4 leukemia
# CCRF-CEM leukemia = tested on: CCRF-CEM leukemia
# SF-268 CNS = tested on: SF-268 CNS
# COLO 205 colon = tested on: COLO 205 colon
# HOP-92 NSCLC = tested on: HOP-92 NSCLC
# SNB-75 CNS = tested on: SNB-75 CNS
# SF-539 CNS = tested on: SF-539 CNS
# HCT-116 colon = tested on: HCT-116 colon
# 786-0 renal = tested on: 786-0 renal
# ACHN renal = tested on: ACHN renal
# IGROV1 ovarian = tested on: IGROV1 ovarian
# HCC-2998 colon = tested on: HCC-2998 colon
# HCT-15 colon = tested on: HCT-15 colon
# UO-31 renal = tested on: UO-31 renal
# DMS 114 small cell lung = tested on: DMS 114 small cell lung
# MALME-3M melanoma = tested on: MALME-3M melanoma
# SN12C renal = tested on: SN12C renal
# A498 renal = tested on: A498 renal
# DMS 273 small cell lung = tested on: DMS 273 small cell lung
# NCI-H522 lung = tested on: NCI-H522 lung
# NCI-H226 lung = tested on: NCI-H226 lung
# K-562 leukemia = tested on: K-562 leukemia
# CAKI-1 renal = tested on: CAKI-1 renal
# M14 melanoma = tested on: M14 melanoma
# SR leukemia = tested on: SR leukemia
# LXFL 529 NSCLC = tested on: LXFL 529 NSCLC
# HL-60(TB) leukemia = tested on: HL-60(TB) leukemia
# DLD-1 colon = tested on: DLD-1 colon
# SK-MEL-2 melanoma = tested on: SK-MEL-2 melanoma
# RPMI-8226 leukemia = tested on: RPMI-8226 leukemia
# SK-MEL-5 melanoma = tested on: SK-MEL-5 melanoma
# LOX IMVI melanoma = tested on: LOX IMVI melanoma
# RXF 393 renal = tested on: RXF 393 renal
# MDA-MB-435 = tested on: MDA-MB-435
# HS 578T breast = tested on: HS 578T breast
# U251 CNS = tested on: U251 CNS
# UACC-257 melanoma = tested on: UACC-257 melanoma
# SF-295 CNS = tested on: SF-295 CNS
# DU-145 prostate = tested on: DU-145 prostate
# BT-549 breast = tested on: BT-549 breast
# T-47D breast = tested on: T-47D breast
# OVCAR-8 ovarian = tested on: OVCAR-8 ovarian
# NCI-H460 lung = tested on: NCI-H460 lung
# HT29 colon = tested on: HT29 colon
# OVCAR-5 ovarian = tested on: OVCAR-5 ovarian
# KM12 colon = tested on: KM12 colon
# SNB-19 CNS = tested on: SNB-19 CNS
# OVCAR-3 ovarian = tested on: OVCAR-3 ovarian
# SW-620 colon = tested on: SW-620 colon
# PC-3 prostate = tested on: PC-3 prostate
# MDA-MB-231 breast = tested on: MDA-MB-231 breast
# MCF7 breast = tested on: MCF7 breast
# MDA-N = tested on: MDA-N
# EKVX NSCLC = tested on: EKVX NSCLC
# TK-10 renal = tested on: TK-10 renal
# NCI/ADR-RES ovarian = tested on: NCI/ADR-RES ovarian
# A549 NSCLC = tested on: A549 NSCLC
smiles,measurement,setting,value
COc1cc([C@H]2Oc3cc(O)c4c(=O)cc(-c5ccccc5)oc4c3O[C@@H]2CO)ccc1O,TGI,OVCAR-4 ovarian,89.4 µM
same,TGI,HOP-62 NSCLC,> 100 µM
same,TGI,SK-MEL-28 melanoma,> 100 µM
same,TGI,UACC-62 melanoma,> 100 µM
same,TGI,NCI-H23 lung,69.2 µM
same,TGI,SK-OV-3 ovarian,70.3 µM
same,TGI,MOLT-4 leukemia,> 100 µM
same,TGI,CCRF-CEM leukemia,> 100 µM
same,TGI,SF-268 CNS,> 100 µM
same,TGI,COLO 205 colon,> 100 µM
same,TGI,HOP-92 NSCLC,58.1 µM
same,TGI,SNB-75 CNS,39 µM
same,TGI,SF-539 CNS,56.6 µM
same,TGI,HCT-116 colon,> 100 µM
same,TGI,786-0 renal,61.2 µM
same,TGI,ACHN renal,63.8 µM
same,TGI,IGROV1 ovarian,> 100 µM
same,TGI,HCC-2998 colon,> 100 µM
same,TGI,HCT-15 colon,> 100 µM
same,TGI,UO-31 renal,58.6 µM
same,TGI,DMS 114 small cell lung,> 100 µM
same,TGI,MALME-3M melanoma,46.3 µM
same,TGI,SN12C renal,> 100 µM
same,TGI,A498 renal,73.4 µM
same,TGI,DMS 273 small cell lung,> 100 µM
same,TGI,NCI-H522 lung,72 µM
same,TGI,NCI-H226 lung,80.1 µM
same,TGI,K-562 leukemia,> 100 µM
same,TGI,CAKI-1 renal,79.1 µM
same,TGI,M14 melanoma,> 100 µM
same,TGI,SR leukemia,> 100 µM
same,TGI,LXFL 529 NSCLC,77 µM
same,TGI,HL-60(TB) leukemia,> 100 µM
same,TGI,DLD-1 colon,> 100 µM
same,TGI,SK-MEL-2 melanoma,> 100 µM
same,TGI,RPMI-8226 leukemia,> 100 µM
CCOC(=O)c1c(NC(=O)c2cccs2)sc2c1CCCC2,TGI,OVCAR-4 ovarian,> 100 µM
same,TGI,SK-MEL-5 melanoma,> 100 µM
same,TGI,LOX IMVI melanoma,> 100 µM
same,TGI,HOP-62 NSCLC,55.3 µM
same,TGI,RXF 393 renal,30.8 µM
same,TGI,SK-MEL-28 melanoma,> 100 µM
same,TGI,MDA-MB-435,> 100 µM
same,TGI,HS 578T breast,76.9 µM
same,TGI,UACC-62 melanoma,> 100 µM
same,TGI,U251 CNS,> 91.9 µM
same,TGI,UACC-257 melanoma,> 100 µM
same,TGI,NCI-H23 lung,> 100 µM
same,TGI,SF-295 CNS,> 100 µM
same,TGI,DU-145 prostate,> 100 µM
same,TGI,BT-549 breast,> 100 µM
same,TGI,T-47D breast,> 100 µM
same,TGI,SK-OV-3 ovarian,79.5 µM
same,TGI,MOLT-4 leukemia,> 100 µM
same,TGI,CCRF-CEM leukemia,> 100 µM
same,TGI,OVCAR-8 ovarian,> 100 µM
same,TGI,SF-268 CNS,73.6 µM
same,TGI,NCI-H460 lung,> 100 µM
same,TGI,COLO 205 colon,> 100 µM
same,TGI,HT29 colon,> 100 µM
same,TGI,OVCAR-5 ovarian,> 100 µM
same,TGI,KM12 colon,> 100 µM
same,TGI,HOP-92 NSCLC,> 100 µM
same,TGI,SNB-19 CNS,> 81.2 µM
same,TGI,OVCAR-3 ovarian,> 100 µM
same,TGI,SW-620 colon,> 100 µM
same,TGI,SNB-75 CNS,81.8 µM
same,TGI,PC-3 prostate,> 100 µM
same,TGI,SF-539 CNS,57.4 µM
same,TGI,HCT-116 colon,> 100 µM
same,TGI,MDA-MB-231 breast,69.8 µM
same,TGI,786-0 renal,> 100 µM
same,TGI,ACHN renal,> 100 µM
same,TGI,IGROV1 ovarian,> 100 µM
same,TGI,HCC-2998 colon,> 100 µM
same,TGI,HCT-15 colon,> 100 µM
same,TGI,MCF7 breast,> 100 µM
same,TGI,UO-31 renal,> 100 µM
same,TGI,MALME-3M melanoma,> 74.5 µM
same,TGI,MDA-N,> 100 µM
same,TGI,SN12C renal,> 100 µM
same,TGI,EKVX NSCLC,> 100 µM
same,TGI,A498 renal,> 96.3 µM
same,TGI,NCI-H522 lung,> 100 µM
same,TGI,TK-10 renal,> 86.1 µM
same,TGI,NCI/ADR-RES ovarian,> 100 µM
same,TGI,NCI-H226 lung,> 100 µM
same,TGI,K-562 leukemia,> 100 µM
same,TGI,CAKI-1 renal,> 100 µM
same,TGI,M14 melanoma,> 100 µM
same,TGI,SR leukemia,> 100 µM
same,TGI,HL-60(TB) leukemia,> 100 µM
same,TGI,A549 NSCLC,> 100 µM
same,TGI,SK-MEL-2 melanoma,> 100 µM
same,TGI,RPMI-8226 leukemia,> 100 µM
